Assay results taken from the NIST ThermoML archive (doi:10.1021/acs.jced.8b00585).
± gives the expanded uncertainty stated by the source.

Settings: Liquid; for Critical pressure: Direct measurement; for Critical temperature: Visual observation in an unstirred cell

`CCCCCCC` [heptane] gave a Critical pressure of 2736 ± 17 kPa and a Critical temperature of 540.1 ± 0.4 K.

For `CCCCCCCCC` [nonane], the Critical pressure was 2278 ± 16 kPa and the Critical temperature was 594.5 ± 0.4 K.

Compound `CCCCCCCC` [octane] has a Critical pressure of 2496 ± 16 kPa and a Critical temperature of 568.9 ± 0.4 K.

Work on `CCCCCC` [hexane] yielded a Critical pressure of 3033 ± 18 kPa and a Critical temperature of 507.8 ± 0.4 K.

Work on `CCCCO` [butan-1-ol] yielded a Critical pressure of 4406 ± 22 kPa and a Critical temperature of 563 ± 0.4 K.

Compound `CCCCCCCCCC` [decane] has a Critical pressure of 2106 ± 15 kPa and a Critical temperature of 617.7 ± 0.4 K.
